Data: PubChem BioAssay AID1963852 (Molecular Pharmacology Branch, DTP, NCI, 2024)

Tested on: 282377-053-R-J1-PDC complex spheroid viability
Assay: Anticancer human tumor 282377-053-R-J1-PDC patient-derived colon adenocarcinoma cell line growth inhibition [POLQ]
Details: for IC50: curve of first compound; for viability, T/C: stronger effect = lower value
Method in brief: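 PDC + HUVEC + MSC complex spheroids; POLQ inhibitors ± partner drugs; top conc. at/near clinical Cmax, else 10 microM (SN-38 1 microM), half-log dilutions; 37 degrees C, 5% CO2.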

[1] = second compound 0.0316 µM, first compound 0.0316 µM
[2] = second compound 0.0316 µM, first compound 0.1 µM
[3] = second compound 0.1 µM, first compound 0.0316 µM
[4] = second compound 0.1 µM, first compound 0.1 µM
[5] = second compound 0.316 µM, first compound 0.0316 µM
[6] = second compound 0.316 µM, first compound 0.1 µM
[7] = second compound 1 µM, first compound 0.0316 µM
[8] = second compound 1 µM, first compound 0.1 µM
[9] = second compound 3.16 µM, first compound 0.0316 µM
[10] = second compound 3.16 µM, first compound 0.1 µM
[11] = second compound 10 µM, first compound 0.0316 µM
[12] = second compound 10 µM, first compound 0.1 µM
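Further: spheroids exposed to compounds for seven days.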
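Wherever viability, T/C is given: 100% = DMSO vehicle control viability.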

`CC(=O)O[C@H]1C(=O)[C@@]2(C)[C@H]([C@H](OC(=O)c3ccccc3)[C@]3(O)C[C@H](OC(=O)[C@H](O)[C@@H](NC(=O)c4ccccc4)c4ccccc4)C(C)=C1C3(C)C)[C@]1(OC(C)=O)CO[C@@H]1C[C@@H]2O` + Cc1cccc(N(C)C(=O)C2C(O)CCN2c2nc(C)cc(C(F)(F)F)c2C#N)c1 was tested, and the IC50 (second compound 0.0316 µM) was 27.8 nM, the IC50 (second compound 0.1 µM) was 28 nM and the IC50 (second compound 0.316 µM) was 26 nM. It also gave an IC50 (second compound 1 µM) of 27.6 nM, an IC50 (second compound 3.16 µM) of 28.1 nM and an IC50 (second compound 10 µM) of 26.9 nM. It also gave a viability, T/C (second compound 0.0316 µM, first compound 0.00949 µM) of 103%, a viability, T/C (second compound 0.0316 µM, first compound 0.03 µM) of 44.3% and a viability, T/C (second compound 0.0316 µM, first compound 0.0949 µM) of 40.6%. The viability, T/C (second compound 0.0316 µM, first compound 0.3 µM) was 43%, the viability, T/C (second compound 0.0316 µM, first compound 0.949 µM) was 45.6% and the viability, T/C (second compound 0.0316 µM, first compound 3 µM) was 57.6%. The viability, T/C (second compound 0.1 µM, first compound 0.00949 µM) was 90.3%, the viability, T/C (second compound 0.1 µM, first compound 0.03 µM) was 47.5% and the viability, T/C (second compound 0.1 µM, first compound 0.0949 µM) was 43.4%. It also gave a viability, T/C (second compound 0.1 µM, first compound 0.3 µM) of 40.9%, a viability, T/C (second compound 0.1 µM, first compound 0.949 µM) of 44.8% and a viability, T/C (second compound 0.1 µM, first compound 3 µM) of 53%. The viability, T/C (second compound 0.316 µM, first compound 0.00949 µM) was 98.8%, the viability, T/C (second compound 0.316 µM, first compound 0.03 µM) was 42.5% and the viability, T/C (second compound 0.316 µM, first compound 0.0949 µM) was 38.5%. For the same molecule, the viability, T/C (second compound 0.316 µM, first compound 0.3 µM) was 37.5%, the viability, T/C (second compound 0.316 µM, first compound 0.949 µM) was 45.4% and the viability, T/C (second compound 0.316 µM, first compound 3 µM) was 51.4%. It also gave a viability, T/C (second compound 1 µM, first compound 0.00949 µM) of 92.3%, a viability, T/C (second compound 1 µM, first compound 0.03 µM) of 44.9% and a viability, T/C (second compound 1 µM, first compound 0.0949 µM) of 37.2%. For the same molecule, the viability, T/C (second compound 1 µM, first compound 0.3 µM) was 45.6%, the viability, T/C (second compound 1 µM, first compound 0.949 µM) was 48.8% and the viability, T/C (second compound 1 µM, first compound 3 µM) was 56.7%. It also gave a viability, T/C (second compound 3.16 µM, first compound 0.00949 µM) of 99.5%, a viability, T/C (second compound 3.16 µM, first compound 0.03 µM) of 47.2% and a viability, T/C (second compound 3.16 µM, first compound 0.0949 µM) of 39.5%. It also gave a viability, T/C (second compound 3.16 µM, first compound 0.3 µM) of 44.5%, a viability, T/C (second compound 3.16 µM, first compound 0.949 µM) of 45.2% and a viability, T/C (second compound 3.16 µM, first compound 3 µM) of 54.2%. It also gave a viability, T/C (second compound 10 µM, first compound 0.00949 µM) of 95%, a viability, T/C (second compound 10 µM, first compound 0.03 µM) of 43.1% and a viability, T/C (second compound 10 µM, first compound 0.0949 µM) of 37.8%. It also gave a viability, T/C (second compound 10 µM, first compound 0.3 µM) of 40.7%, a viability, T/C (second compound 10 µM, first compound 0.949 µM) of 46.4% and a viability, T/C (second compound 10 µM, first compound 3 µM) of 58.1%.

`CC[C@@]1(O)C(=O)OCc2c1cc1n(c2=O)Cc2cc3c(CN(C)C)c(O)ccc3nc2-1` + Cc1cccc(N(C)C(=O)C2C(O)CCN2c2nc(C)cc(C(F)(F)F)c2C#N)c1 gave an IC50 (second compound 0.0316 µM) greater than 100 nM, an IC50 (second compound 0.1 µM) greater than 100 nM and an IC50 (second compound 0.316 µM) greater than 100 nM. For the same molecule, the IC50 (second compound 1 µM) was greater than 100 nM, the IC50 (second compound 3.16 µM) was greater than 100 nM and the IC50 (second compound 10 µM) was greater than 100 nM. The viability, T/C (second compound 0.0316 µM, first compound 0.000316 µM) was 97.1%, the viability, T/C (second compound 0.0316 µM, first compound 0.001 µM) was 107% and the viability, T/C (second compound 0.0316 µM, first compound 0.00316 µM) was 118%. For the same molecule, the viability, T/C (second compound 0.0316 µM, first compound 0.01 µM) was 111%, the viability, T/C [1] was 94.4% and the viability, T/C [2] was 76.1%. It also gave a viability, T/C (second compound 0.1 µM, first compound 0.000316 µM) of 98.3%, a viability, T/C (second compound 0.1 µM, first compound 0.001 µM) of 108% and a viability, T/C (second compound 0.1 µM, first compound 0.00316 µM) of 86.1%. It also gave a viability, T/C (second compound 0.1 µM, first compound 0.01 µM) of 109%, a viability, T/C [3] of 87.6% and a viability, T/C [4] of 88%. It also gave a viability, T/C (second compound 0.316 µM, first compound 0.000316 µM) of 90.6%, a viability, T/C (second compound 0.316 µM, first compound 0.001 µM) of 97.8% and a viability, T/C (second compound 0.316 µM, first compound 0.00316 µM) of 101%. The viability, T/C (second compound 0.316 µM, first compound 0.01 µM) was 105%, the viability, T/C [5] was 107% and the viability, T/C [6] was 77.2%. For the same molecule, the viability, T/C (second compound 1 µM, first compound 0.000316 µM) was 93%, the viability, T/C (second compound 1 µM, first compound 0.001 µM) was 92.6% and the viability, T/C (second compound 1 µM, first compound 0.00316 µM) was 124%. For the same molecule, the viability, T/C (second compound 1 µM, first compound 0.01 µM) was 105%, the viability, T/C [7] was 124% and the viability, T/C [8] was 71.9%. The viability, T/C (second compound 3.16 µM, first compound 0.000316 µM) was 97.5%, the viability, T/C (second compound 3.16 µM, first compound 0.001 µM) was 102% and the viability, T/C (second compound 3.16 µM, first compound 0.00316 µM) was 98.5%. It also gave a viability, T/C (second compound 3.16 µM, first compound 0.01 µM) of 94.6%, a viability, T/C [9] of 101% and a viability, T/C [10] of 71%. For the same molecule, the viability, T/C (second compound 10 µM, first compound 0.000316 µM) was 87.5%, the viability, T/C (second compound 10 µM, first compound 0.001 µM) was 93.9% and the viability, T/C (second compound 10 µM, first compound 0.00316 µM) was 92.3%. It also gave a viability, T/C (second compound 10 µM, first compound 0.01 µM) of 81.2%, a viability, T/C [11] of 96.2% and a viability, T/C [12] of 65.2%.

With `O=c1[nH]cc(F)c(=O)[nH]1` + Cc1cccc(N(C)C(=O)C2C(O)CCN2c2nc(C)cc(C(F)(F)F)c2C#N)c1 the IC50 (second compound 0.0316 µM) was greater than 10000 nM, the IC50 (second compound 0.1 µM) was greater than 10000 nM and the IC50 (second compound 0.316 µM) was greater than 10000 nM. It also gave an IC50 (second compound 1 µM) greater than 10000 nM, an IC50 (second compound 3.16 µM) greater than 10000 nM and an IC50 (second compound 10 µM) greater than 10000 nM. It also gave a viability, T/C [1] of 111%, a viability, T/C [2] of 104% and a viability, T/C (second compound 0.0316 µM, first compound 0.316 µM) of 89.8%. It also gave a viability, T/C (second compound 0.0316 µM, first compound 1 µM) of 78.8%, a viability, T/C (second compound 0.0316 µM, first compound 3.16 µM) of 70.3% and a viability, T/C (second compound 0.0316 µM, first compound 10 µM) of 68.5%. For the same molecule, the viability, T/C [3] was 102%, the viability, T/C [4] was 111% and the viability, T/C (second compound 0.1 µM, first compound 0.316 µM) was 128%. For the same molecule, the viability, T/C (second compound 0.1 µM, first compound 1 µM) was 86%, the viability, T/C (second compound 0.1 µM, first compound 3.16 µM) was 76.7% and the viability, T/C (second compound 0.1 µM, first compound 10 µM) was 70.4%. It also gave a viability, T/C [5] of 117%, a viability, T/C [6] of 88.7% and a viability, T/C (second compound 0.316 µM, first compound 0.316 µM) of 116%. For the same molecule, the viability, T/C (second compound 0.316 µM, first compound 1 µM) was 74.9%, the viability, T/C (second compound 0.316 µM, first compound 3.16 µM) was 80.3% and the viability, T/C (second compound 0.316 µM, first compound 10 µM) was 67.9%. The viability, T/C [7] was 107%, the viability, T/C [8] was 85.5% and the viability, T/C (second compound 1 µM, first compound 0.316 µM) was 105%. It also gave a viability, T/C (second compound 1 µM, first compound 1 µM) of 104%, a viability, T/C (second compound 1 µM, first compound 3.16 µM) of 82.7% and a viability, T/C (second compound 1 µM, first compound 10 µM) of 63.1%. For the same molecule, the viability, T/C [9] was 99.1%, the viability, T/C [10] was 104% and the viability, T/C (second compound 3.16 µM, first compound 0.316 µM) was 80.6%. For the same molecule, the viability, T/C (second compound 3.16 µM, first compound 1 µM) was 88.6%, the viability, T/C (second compound 3.16 µM, first compound 3.16 µM) was 80.1% and the viability, T/C (second compound 3.16 µM, first compound 10 µM) was 68.7%. For the same molecule, the viability, T/C [11] was 113%, the viability, T/C [12] was 109% and the viability, T/C (second compound 10 µM, first compound 0.316 µM) was 107%. For the same molecule, the viability, T/C (second compound 10 µM, first compound 1 µM) was 76.4%, the viability, T/C (second compound 10 µM, first compound 3.16 µM) was 69.7% and the viability, T/C (second compound 10 µM, first compound 10 µM) was 63.8%.
